pIC50: −log10 of the molar value.
Molecular target: human PAD4 (hPAD4) (Homo sapiens (Human), UniProt Q9UM07)
Assay: RFMS Human PAD4 Functional Assay 1
Format: biochemical
Conditions: RFMS assay 1; 5 nM hPAD4, 250 μM BAEE substrate, 50 μM calcium, 37° C.
Description: RFMS Human PAD4 Functional Assay 1:
Compounds were solubilized in 100% DMSO to achieve all) mM compound concentration. Compound stock solutions were stored at RT. A series of dilutions were prepared in DMSO and mixed 8 times with 20 μL mixing volume. Final top concentration of compound in the assay is 50 μM. Final assay conditions were as follows: • Reaction volume: 26 μl • Assay buffer: 25 mM hepes, pH 7.5, 5 mM NaCl, 1 mM DTT, 0.2 mg/ml BSA, 0.01% CHAPS, 50 μM Calcium, and 5 μM TPEN • Final concentrations: 5 nM hPAD4 enzyme, 250 μM BASE, and 0.5% DMSO • Total incubation time: 30 mins compound and enzyme preincubation at 37° C., 90 min enzyme/substrate reaction, 30 min reaction with phenyl glyoxal at 37° C. • Stop solution: 40 μl 5% TCA in ACN
0.13 μL of compound solution was added to 13 μL of 10 nM PAD4 in assay buffer. After 30 min 13 μl of 500 μM of BAEE was added in 25 mM hepes, pH 7.5, 5 mM NaCl, 1 mM DTT, 0.2 mg/ml BSA, 0.01% CHAPS, 50 μM Calcium, 5 μM TPEN was added and the reaction incubated for 90 min at 37° C. The enzymatic reaction was quenched by addition of 15 μl of 6.1N TCA, 100% Final Concentration is 20%, 35 μl of 8.5 mM phenyl glyoxal (final concentration 4 mM) is then added and the reaction is incubated for 30 min at 37° C.
After 30 minutes the plates are spun down to remove all precipitate. The enzyme reaction was quenched with an equal volume of methanol containing internal standard (modified citrulline). Samples were loaded onto the Rapid Fire RF300 system (Agilent) wherein they were first sipped for 1000 ms and then directly loaded to a C18 separations cartridge using a mixture of acetonitrile containing 0.01% formic acid for 3000 ms desalting. The flow rate of the mobile phase was 1.5 ml/min. Once the samples were eluted from the cartridge, a mobile phase of acetonitrile containing 0.01% formic acid was used to move the samples into the mass spectrometer for 4000 ms at a flow rate of 1.25 ml/min/Sciex API5500 triple quadrupole mass spectrometer (Applied Biosystems) equipped with ESI was used to analyze the peptidyl citrulline and internal standard ions.
MRM transition of product and internal standard were monitored at m/z 424.5 to 350.4 and m/z 293 to 247 respectively. The dwell time for each transition was set at 200 ms, and the ESI voltage was used at 5500 with a source temperature of 400° C. Extracted ion peaks for each transition were integrated using the Rapid Fire Integrator software. Peak area of analyte was normalized with internal standard.).

Sequence of human PAD4 (hPAD4) (Q9UM07 whole entry): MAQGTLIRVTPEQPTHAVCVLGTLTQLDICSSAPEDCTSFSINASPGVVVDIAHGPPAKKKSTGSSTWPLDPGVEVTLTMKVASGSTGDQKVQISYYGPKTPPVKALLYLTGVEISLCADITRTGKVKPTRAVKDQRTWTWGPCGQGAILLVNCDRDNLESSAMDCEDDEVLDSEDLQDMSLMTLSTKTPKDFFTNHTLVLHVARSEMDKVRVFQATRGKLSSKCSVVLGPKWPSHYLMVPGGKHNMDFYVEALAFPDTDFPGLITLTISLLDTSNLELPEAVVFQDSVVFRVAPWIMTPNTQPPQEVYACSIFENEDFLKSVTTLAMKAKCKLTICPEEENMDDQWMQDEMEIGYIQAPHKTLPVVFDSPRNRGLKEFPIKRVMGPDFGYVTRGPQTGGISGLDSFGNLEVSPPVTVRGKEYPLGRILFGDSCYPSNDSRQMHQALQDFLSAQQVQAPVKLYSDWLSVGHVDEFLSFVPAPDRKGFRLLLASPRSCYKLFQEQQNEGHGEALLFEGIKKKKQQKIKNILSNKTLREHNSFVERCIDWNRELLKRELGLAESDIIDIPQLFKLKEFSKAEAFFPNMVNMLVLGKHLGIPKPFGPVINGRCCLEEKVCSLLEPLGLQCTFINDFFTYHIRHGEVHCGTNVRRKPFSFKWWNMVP

SMILES | pIC50
Cc1c(-c2cc3cc(F)cc(C4CCN(C(=O)C5CC(O)C5)CC4)c3n2CC2CC2)nn2cc(C(=O)N3CCC[C@@H](N)C3)ccc12 (mixture of isomers) [Example 492, (R)-(3-Aminopiperidin-1-yl)(2-(1-(cyclopropylmethyl)-5-fluoro-7-(1-(3-hydroxycyclobutane-1-carbonyl)piperidin-4-yl)-1H-indol-2-yl)-3-methylpyrazolo[1,5-a]pyridin-6-yl)methanone] | 6.89
Cc1c(-c2cc3cc(F)cc(C4CCN(C(=O)C5CC(O)(C(F)(F)F)C5)CC4)c3n2CC2CC2)nn2cc(C(=O)N3C[C@H](N)C[C@@H](F)C3)ccc12 (mixture of isomers) [Example 505, ((3R,5R)-3-Amino-5-fluoropiperidin-1-yl)(2-(1-(cyclopropylmethyl)-5-fluoro-7-(1-(3-hydroxy-3-(trifluoromethyl)cyclobutane-1-carbonyl)piperidin-4-yl)-1H-indol-2-yl)-3-methylpyrazolo[1,5-a]pyridin-6-yl)methanone] | 7.22
COc1cc(C(=O)N2CCC[C@@H](N)C2)cn2nc(-c3cc4cccc(C5CN(C(=O)C6CC(O)(C(F)(F)F)C6)C5)c4n3CC3CC3)c(C)c12 (mixture of isomers) [Example 515, (R)-(3-Aminopiperidin-1-yl)(2-(1-(cyclopropylmethyl)-7-(1-(3-hydroxy-3-(trifluoromethyl)cyclobutane-1-carbonyl)azetidin-3-yl)-1H-indol-2-yl)-4-methoxy-3-methylpyrazolo[1,5-a]pyridin-6-yl)methanone] | 7.22
Cc1c(-c2cc3cccc(C4CN(C(=O)C5CCCCO5)C4)c3n2CC2CC2)nn2cc(C(=O)N3C[C@H](N)C[C@@H](F)C3)ccc12 (mixture of isomers) [Example 544, ((3R,5R)-3-Amino-5-fluoropiperidin-1-yl)(2-(1-(cyclopropylmethyl)-7-(1-(tetrahydro-2H-pyran-2-carbonyl)azetidin-3-yl)-1H-indol-2-yl)-3-methylpyrazolo[1,5-a]pyridin-6-yl)methanone] | 5.97
COc1cc(C(=O)N2CC3CCC2[C@@H]3N)cn2nc(-c3cc4ccnc(OCC5CNC(=O)C5)c4n3CC3CC3)c(C)c12 (mixture of isomers) [Example 608, 4-(((2-(6-((7R)-7-Amino-2-azabicyclo[2.2.1]heptane-2-carbonyl)-4-methoxy-3-methylpyrazolo[1,5-a]pyridin-2-yl)-1-(cyclopropylmethyl)-1H-pyrrolo[2,3-c]pyridin-7-yl)oxy)methyl)pyrrolidin-2-one (mixture of diastereomers)] | 8.00
COc1cc(C(=O)N2CCC[C@@H](N)C2)cn2nc(-c3cc4cccc(C5CCN(C(=O)C6CCCCO6)CC5)c4n3CC3CC3)c(C)c12 (single isomer, unassigned) [Example 386] | 7.10
COc1cc(C(=O)N2CCC[C@@H](N)C2)cn2nc(-c3cc4cccc(C5CCN(C(=O)C6CCCCO6)CC5)c4n3CC3CC3)c(C)c12 (single isomer, unassigned) [Example 387] | 6.64
COc1cc(C(=O)N2C[C@H](N)C[C@@H](F)C2)cn2nc(-c3cc4cccc(C5CCN(C(=O)C6CC(O)C6)CC5)c4n3CC3CC3)c(C)c12 (single isomer, unassigned) [Example 390] | 8.30
COc1cc(C(=O)N2CCC[C@@H](N)C2)cn2nc(-c3cc4cccc(C5CCN(C(=O)C6CC(O)C6)CC5)c4n3CC3CC3)c(C)c12 (single isomer, unassigned) [Example 392] | 8.52
COc1cc(C(=O)N2C[C@H](N)C[C@@H](F)C2)cn2nc(-c3cc4cccc(C5CCN(C(=O)C6CC(O)C6)CC5)c4n3CC3CC3)c(C)c12 (single isomer, unassigned) [Example 393] | 6.60
COc1cc(C(=O)N2C[C@H](N)C[C@@H](F)C2)cn2nc(-c3cc4cccc(C5CCN(C(=O)C6CCCO6)CC5)c4n3CC3CC3)c(C)c12 (single isomer, unassigned) [Example 397] | 7.40
Cc1c(-c2cc3cc(F)cc(C4CCN(C(=O)C5CCCO5)CC4)c3n2CC2CC2)nn2cc(C(=O)N3CCC[C@@H](N)C3)ccc12 (single isomer, unassigned) [Example 488] | 6.60

Now from value to compound:

pIC50 | SMILES
7.70 | Cc1c(-c2cc3cccc(C4CCN(C(=O)C5CC(O)C5)CC4)c3n2CC2CC2)nn2cc(C(=O)N3CC4CCC3[C@@H]4N)ccc12 (mixture of isomers) [Example 467, (4-(2-(6-((7R)-7-amino-2-azabicyclo[2.2.1]heptane-2-carbonyl)-3-methylpyrazolo[1,5-a]pyridin-2-yl)-1-(cyclopropylmethyl)-1H-indol-7-yl)piperidin-1-yl)(3-hydroxycyclobutyl)methanone]
7.70 | Cc1c(-c2cc3cc(F)cc(C4CCN(C(=O)C5CC(O)C5)CC4)c3n2CC2CC2)nn2cc(C(=O)N3C[C@H](N)C[C@@H](F)C3)ccc12 (mixture of isomers) [Example 496, ((3R,5R)-3-Amino-5-fluoropiperidin-1-yl)(2-(1-(cyclopropylmethyl)-5-fluoro-7-(1-(3-hydroxycyclobutane-1-carbonyl)piperidin-4-yl)-1H-indol-2-yl)-3-methylpyrazolo[1,5-a]pyridin-6-yl)methanone]
7.40 | Cc1c(-c2cc3cc(F)cc(C4CCN(C(=O)C5CCCCO5)CC4)c3n2CC2CC2)nn2cc(C(=O)N3CCC[C@@H](N)C3)ccc12 (mixture of isomers) [Example 508, ((R)-3-Aminopiperidin-1-yl)(2-(1-(cyclopropylmethyl)-5-fluoro-7-(1-(tetrahydro-2H-pyran-2-carbonyl)piperidin-4-yl)-1H-indol-2-yl)-3-methylpyrazolo[1,5-a]pyridin-6-yl)methanone]
6.46 | Cc1c(-c2cc3cc(F)cc(C4CCN(C(=O)C5CCCCO5)CC4)c3n2CC2CC2)nn2cc(C(=O)N3C[C@H](N)C[C@@H](F)C3)ccc12 (mixture of isomers) [Example 509, ((3R,5R)-3-Amino-5-fluoropiperidin-1-yl)(2-(1-(cyclopropylmethyl)-5-fluoro-7-(1-(tetrahydro-2H-pyran-2-carbonyl)piperidin-4-yl)-1H-indol-2-yl)-3-methylpyrazolo[1,5-a]pyridin-6-yl)methanone]
7.15 | Cc1c(-c2cc3cccc(C4CN(C(=O)C5CC(O)(C(F)(F)F)C5)C4)c3n2CC2CC2)nn2cc(C(=O)N3CCC[C@@H](N)C3)ccc12 (mixture of isomers) [Example 535, (R)-(3-Aminopiperidin-1-yl)(2-(1-(cyclopropylmethyl)-7-(1-(3-hydroxy-3-(trifluoromethyl)cyclobutane-1-carbonyl)azetidin-3-yl)-1H-indol-2-yl)-3-methylpyrazolo[1,5-a]pyridin-6-yl)methanone]
6.59 | Cc1c(-c2cc3cccc(C4CN(C(=O)C5CCCCO5)C4)c3n2CC2CC2)nn2cc(C(=O)N3CCC[C@@H](N)C3)ccc12 (mixture of isomers) [Example 545, ((R)-3-Aminopiperidin-1-yl)(2-(1-(cyclopropylmethyl)-7-(1-(tetrahydro-2H-pyran-2-carbonyl)azetidin-3-yl)-1H-indol-2-yl)-3-methylpyrazolo[1,5-a]pyridin-6-yl)methanone]
6.68 | Cc1c(-c2cc3ccc(C(C)(O)C(F)(F)F)nc3n2CC2CC2)nn2cc(C(=O)N3C[C@H](N)C[C@@H](F)C3)ccc12 (single isomer, unassigned) [Example 106]
6.62 | Cc1c(-c2cc3ccc(C(C)(O)C(F)(F)F)nc3n2CC2CC2)nn2cc(C(=O)N3C[C@H](N)C[C@@H](F)C3)ccc12 (single isomer, unassigned) [Example 107]
7.15 | COc1cc(C(=O)N2C[C@H](N)C[C@@H](F)C2)cn2nc(-c3cc4cccc(C5CCN(C(=O)C6CCCCO6)CC5)c4n3CC3CC3)c(C)c12 (single isomer, unassigned) [Example 388]
7.52 | COc1cc(C(=O)N2C[C@H](N)C[C@@H](F)C2)cn2nc(-c3cc4cccc(C5CCN(C(=O)C6CCCCO6)CC5)c4n3CC3CC3)c(C)c12 (single isomer, unassigned) [Example 389]
8.00 | COc1cc(C(=O)N2C[C@H](N)C[C@@H](F)C2)cn2nc(-c3cc4cccc(C5CCN(C(=O)C6CCCO6)CC5)c4n3CC3CC3)c(C)c12 (single isomer, unassigned) [Example 394]
6.96 | COc1cc(C(=O)N2CCC[C@@H](N)C2)cn2nc(-c3cc4cccc(C5CCN(C(=O)C6CC(O)C6)CC5)c4n3CC3CC3)c(C)c12 (single isomer, unassigned) [Example 396]

— patent publication US12473304B2, “Heterocyclic PAD4 inhibitors” (BRISTOL-MYERS SQUIBB COMPANY, priority 2020, dated 2025)
